# Patent publication US10456407B2, “Combination therapy for treating cancer” (Epizyme, Inc., priority 2015, dated 2019)
# Tests used:
# Assay type in all cases: cell-based
# OCI-Ly19 cells = assay: RT2 Glucocorticoid signaling PCR array, OCI-LY19 (Table 4a, printed OCT) cell line; conditions: vs DMSO
# SU-DHL4 cells = assay: RT2 Glucocorticoid signaling PCR array, SU-DHL4 (SUDHL4) cell line (Table 4f); conditions: SUDHL4, 4 days, vs DMSO
# RL cells = assay: RT2 Glucocorticoid signaling PCR array, RL (Table 4e, printed RI) cell line; conditions: 4 days, Cpd44 1 uM, Pred 10-fold below 4-day IC50, vs DMSO, B2M-normalized
# SMARCB1 protein levels = assay: SMARCB1 (INI1) western blot in lymphoma cells; conditions: single agent treatment
# Description: Glucocorticoid bound GR molecules move to the nucleus and can act as either transcriptional activator or repressor, depending on the cellular environment. […] Accessibility to GR binding sites can further be enhanced by ATP-dependent chromatin remodeling, and the SWI/SNF complex plays a key role in this activity. Not wishing to be bound by a particular theory or a specific mechanism of action, it is conceivable that aberrant chromatin repression, induced by EZH2 mediated hypertrimethylation of H3K27, can block some of the otherwise accessible GR binding sites, interfering with normal GR mediated gene induction or repression.
compound,measurement,setting,value
CCN(c1cc(-c2ccc(CN3CCOCC3)cc2)cc(C(=O)NCc2c(C)cc(C)[nH]c2=O)c1C)C1CCOCC1 [Compound 44],"ΔΔCT, ADARB1",OCI-Ly19 cells; gene ADARB1,−0.789
same,"ΔΔCT, AK2",OCI-Ly19 cells; gene AK2,−0.017
same,"ΔΔCT, ANGPTL4",OCI-Ly19 cells; gene ANGPTL4,−0.305
same,"ΔΔCT, ARID68",OCI-Ly19 cells; gene ARID68,0.232
same,"ΔΔCT, ASPH",OCI-Ly19 cells; gene ASPH,−0.584
same,"ΔΔCT, ATF4",OCI-Ly19 cells; gene ATF4,0.124
same,"ΔΔCT, BCL6",OCI-Ly19 cells; gene BCL6,−1.395
same,"ΔΔCT, CEBPB",OCI-Ly19 cells; gene CEBPB,0.390
same,ΔΔCT COL4A2,OCI-Ly19 cells; gene COL4A2,0.309
same,"ΔΔCT, CREB3L4",OCI-Ly19 cells; gene CREB3L4,−0.376
same,ΔΔCT CTGF,OCI-Ly19 cells; gene CTGF,−0.052
same,"ΔΔCT, DDIT4",OCI-Ly19 cells; gene DDIT4,−0.749
same,"ΔΔCT, DUSP1",OCI-Ly19 cells; gene DUSP1,−0.395
same,"ΔΔCT, EHD3",OCI-Ly19 cells; gene EHD3,−1.081
same,"ΔΔCT, FK8PS",OCI-Ly19 cells; gene FK8PS,−0.319
same,"ΔΔCT, FOSL2",OCI-Ly19 cells; gene FOSL2,−0.226
same,"ΔΔCT, GDPD1",OCI-Ly19 cells; gene GDPD1,−0.020
same,ΔΔCT GLUL,OCI-Ly19 cells; gene GLUL,−0.745
same,"ΔΔCT, H6PD",OCI-Ly19 cells; gene H6PD,−0.915
same,"ΔΔCT, HNRPLL",OCI-Ly19 cells; gene HNRPLL,−0.346
same,"ΔΔCT, IL1RN",OCI-Ly19 cells; gene IL1RN,−1.244
same,"ΔΔCT, KLF9",OCI-Ly19 cells; gene KLF9,−1.215
same,"ΔΔCT, KLF13",OCI-Ly19 cells; gene KLF13,−0.452
same,"ΔΔCT, LOX",OCI-Ly19 cells; gene LOX,−0.733
same,ΔΔCT MERTK,OCI-Ly19 cells; gene MERTK,−0.805
same,ΔΔCT MTZA,OCI-Ly19 cells; gene MTZA,−0.118
same,"ΔΔCT, NFKBIA",OCI-Ly19 cells; gene NFKBIA,0.019
same,"ΔΔCT, NR3C1",OCI-Ly19 cells; gene NR3C1,−0.023
same,ΔΔCT PDCC7,OCI-Ly19 cells; gene PDCC7,0.024
same,ΔΔCT PDGFRB,OCI-Ly19 cells; gene PDGFRB,0.934
same,"ΔΔCT, PDP1",OCI-Ly19 cells; gene PDP1,−0.518
same,"ΔΔCT, PIK3R1",OCI-Ly19 cells; gene PIK3R1,−0.274
same,"ΔΔCT, PLEKHF1",OCI-Ly19 cells; gene PLEKHF1,−0.736
same,"ΔΔCT, POU2F1",OCI-Ly19 cells; gene POU2F1,−0.120
same,"ΔΔCT, POU2F2",OCI-Ly19 cells; gene POU2F2,0.031
same,"ΔΔCT, RASA3",OCI-Ly19 cells; gene RASA3,−0.075
same,"ΔΔCT, RHOB",OCI-Ly19 cells; gene RHOB,−1.378
same,"ΔΔCT, SESN1",OCI-Ly19 cells; gene SESN1,−0.253
same,"ΔΔCT, SGK1",OCI-Ly19 cells; gene SGK1,−0.458
same,"ΔΔCT, SLC10A6",OCI-Ly19 cells; gene SLC10A6,−1.185
same,"ΔΔCT, SLC19A2",OCI-Ly19 cells; gene SLC19A2,−0.211
same,"ΔΔCT, SLC22A5",OCI-Ly19 cells; gene SLC22A5,−0.367
same,"ΔΔCT, SNTA1",OCI-Ly19 cells; gene SNTA1,−0.908
same,"ΔΔCT, SPHK1",OCI-Ly19 cells; gene SPHK1,0.016
same,"ΔΔCT, STAT5A",OCI-Ly19 cells; gene STAT5A,0.113
same,"ΔΔCT, STAT5B",OCI-Ly19 cells; gene STAT5B,−0.121
same,"ΔΔCT, TNFAIP3",OCI-Ly19 cells; gene TNFAIP3,0.317
same,"ΔΔCT, TSC22D3",OCI-Ly19 cells; gene TSC22D3,−0.671
same,"ΔΔCT, USP2",OCI-Ly19 cells; gene USP2,−2.822
same,"ΔΔCT, USPS4",OCI-Ly19 cells; gene USPS4,0.165
same,"ΔΔCT, VDR",OCI-Ly19 cells; gene VDR,−0.553
same,"ΔΔCT, ZFP36",OCI-Ly19 cells; gene ZFP36,0.427
same,"ΔΔCT, ZHX3",OCI-Ly19 cells; gene ZHX3,−0.394
same,"ΔΔCT, ZNF281",OCI-Ly19 cells; gene ZNF281,0.531
same,ΔΔCT MERTK,SU-DHL4 cells,1.977
same,"ΔΔCT, ADARB1",SU-DHL4 cells,−1.229
same,"ΔΔCT, AFF1",SU-DHL4 cells,−0.276
same,"ΔΔCT, AMPD3",SU-DHL4 cells,−1.449
same,"ΔΔCT, ANGPTL4",SU-DHL4 cells,−1.331
same,"ΔΔCT, ANXA4",SU-DHL4 cells,−2.419
same,"ΔΔCT, AQP1",SU-DHL4 cells,0.331
same,"ΔΔCT, ARID68",SU-DHL4 cells,−0.541
same,"ΔΔCT, ASPH",SU-DHL4 cells,−0.843
same,"ΔΔCT, ATF4",SU-DHL4 cells,0.146
same,"ΔΔCT, CEBPA",SU-DHL4 cells,−2.510
same,"ΔΔCT, CREB1",SU-DHL4 cells,−0.313
same,"ΔΔCT, CREB3",SU-DHL4 cells,−0.490
same,"ΔΔCT, CREB3L4",SU-DHL4 cells,−0.655
same,"ΔΔCT, CYB561",SU-DHL4 cells,−4.236
same,"ΔΔCT, EHD3",SU-DHL4 cells,−1.998
same,"ΔΔCT, FK8PS",SU-DHL4 cells,0.008
same,"ΔΔCT, GDPD1",SU-DHL4 cells,−1.356
same,"ΔΔCT, GOT1",SU-DHL4 cells,0.065
same,"ΔΔCT, H6PD",SU-DHL4 cells,−0.549
same,"ΔΔCT, HNRPLL",SU-DHL4 cells,−0.471
same,"ΔΔCT, IL6R",SU-DHL4 cells,−1.903
same,"ΔΔCT, IL10",SU-DHL4 cells,−1.895
same,"ΔΔCT, KLF9",SU-DHL4 cells,−1.293
same,"ΔΔCT, KLF13",SU-DHL4 cells,−0.534
same,"ΔΔCT, MT2A",SU-DHL4 cells,−0.309
same,"ΔΔCT, NR3C1",SU-DHL4 cells,−0.234
same,"ΔΔCT, PDCD7",SU-DHL4 cells,−0.127
same,"ΔΔCT, PER1",SU-DHL4 cells,−0.524
same,"ΔΔCT, PER2",SU-DHL4 cells,−0.854
same,"ΔΔCT, PIK3R1",SU-DHL4 cells,−0.502
same,"ΔΔCT, PLEKHF1",SU-DHL4 cells,−1.254
same,"ΔΔCT, POU2F1",SU-DHL4 cells,−0.575
same,"ΔΔCT, RGS2",SU-DHL4 cells,−0.632
same,"ΔΔCT, RHOB",SU-DHL4 cells,−1.561
same,"ΔΔCT, SESN1",SU-DHL4 cells,−2.258
same,"ΔΔCT, SLC10A6",SU-DHL4 cells,−4.180
same,"ΔΔCT, SLC19A2",SU-DHL4 cells,−1.612
same,"ΔΔCT, SLC22A5",SU-DHL4 cells,−0.775
same,"ΔΔCT, SNTA1",SU-DHL4 cells,−0.847
same,"ΔΔCT, SPSB1",SU-DHL4 cells,−0.624
same,"ΔΔCT, STAT5B",SU-DHL4 cells,−0.298
same,"ΔΔCT, TBL1XR1",SU-DHL4 cells,−0.456
same,"ΔΔCT, TNFAIP3",SU-DHL4 cells,0.339
same,"ΔΔCT, TSC22D3",SU-DHL4 cells,−0.002
same,"ΔΔCT, USP2",SU-DHL4 cells,−0.688
same,"ΔΔCT, USPS4",SU-DHL4 cells,6.193
same,"ΔΔCT, ZFP36",SU-DHL4 cells,−0.262
same,"ΔΔCT, ZHX3",SU-DHL4 cells,−1.047
same,ΔΔCT,RL cells; ADARB1 mRNA,−1.672
same,ΔΔCT,RL cells; AFF1 mRNA,−2.005
same,ΔΔCT,RL cells; AK2 mRNA,0.268
same,ΔΔCT,RL cells; ANGPTL4 mRNA,−0.935
same,ΔΔCT,RL cells; ANXA4 mRNA,−0.562
same,ΔΔCT,RL cells; ARID68 mRNA,−1.220
same,ΔΔCT,RL cells; ATF4 mRNA,0.003
same,ΔΔCT,RL cells; CEBPB mRNA,−0.004
same,ΔΔCT,RL cells; COL4A2 mRNA,−0.773
same,ΔΔCT,RL cells; CREB1 mRNA,0.205
same,ΔΔCT,RL cells; CREB3L4 mRNA,−0.760
same,ΔΔCT,RL cells; CREB3 mRNA,−0.189
same,ΔΔCT,RL cells; CYB561 mRNA,−1.477
same,ΔΔCT,RL cells; DDIT4 mRNA,0.461
same,ΔΔCT,RL cells; DUSP1 mRNA,−0.321
same,ΔΔCT,RL cells; EDN1 mRNA,−1.208
same,ΔΔCT,RL cells; EHD3 mRNA,−0.962
same,ΔΔCT,RL cells; FK8PS mRNA,0.388
same,ΔΔCT,RL cells; GDPD1 mRNA,−0.772
same,ΔΔCT,RL cells; GLUL mRNA,−2.614
same,ΔΔCT,RL cells; GOT1 mRNA,0.518
same,ΔΔCT,RL cells; H6PD mRNA,−0.673
same,ΔΔCT,RL cells; HNRPLL mRNA,0.309
same,ΔΔCT,RL cells; IL1RN mRNA,−1.881
same,ΔΔCT,RL cells; IL6R mRNA,−0.515
same,ΔΔCT,RL cells; IL10 mRNA,−1.432
same,ΔΔCT,RL cells; KLF13 mRNA,−0.566
same,ΔΔCT,RL cells; LOX mRNA,−0.580
same,ΔΔCT,RL cells; MERTK mRNA,−4.419
same,ΔΔCT,RL cells; MT2A mRNA,0.577
same,ΔΔCT,RL cells; NFKBIA mRNA,0.854
same,ΔΔCT,RL cells; NR3C1 mRNA,0.067
same,ΔΔCT,RL cells; PDCD7 mRNA,0.006
same,ΔΔCT,RL cells; PDP1 mRNA,−0.989
same,ΔΔCT,RL cells; PER1 mRNA,0.384
same,ΔΔCT,RL cells; PER2 mRNA,−0.361
same,ΔΔCT,RL cells; PIK3R1 mRNA,0.373
same,ΔΔCT,RL cells; PLEKHF1 mRNA,0.050
same,ΔΔCT,RL cells; POU2F1 mRNA,−0.027
same,ΔΔCT,RL cells; POU2F2 mRNA,−0.584
same,ΔΔCT,RL cells; RA5A3 mRNA,−0.009
same,ΔΔCT,RL cells; RGS2 mRNA,−0.162
same,ΔΔCT,RL cells; SESN1 mRNA,−1.697
same,ΔΔCT,RL cells; SGK1 mRNA,0.801
same,ΔΔCT,RL cells; SLC19A2 mRNA,−0.797
same,ΔΔCT,RL cells; SNTA1 mRNA,0.040
same,ΔΔCT,RL cells; SPHK1 mRNA,−0.781
same,ΔΔCT,RL cells; SPSB1 mRNA,−0.865
same,ΔΔCT,RL cells; STAT5A mRNA,0.001
same,ΔΔCT,RL cells; STAT5B mRNA,−0.094
same,ΔΔCT,RL cells; TNF mRNA,−0.837
same,ΔΔCT,RL cells; TNFAIP3 mRNA,0.886
same,ΔΔCT,RL cells; USP2 mRNA,−0.139
same,ΔΔCT,RL cells; USPS4 mRNA,−0.961
same,ΔΔCT,RL cells; VDR mRNA,−2.658
same,ΔΔCT,RL cells; ZHX3 mRNA,4.661
same,ΔΔCT,RL cells; ZNF281 mRNA,0.046
same,SMARCB1 protein levels,SMARCB1 protein levels,no effect
